Reference: PubChem BioAssay (NCI)
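Compound exposure: 48 hours, 5 concentrations, 96-well plates. GI50 marks 50% less growth. TGI is the concentration that stops growth completely.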

Experiments:
Test in all cases: NCI-60 cell line screen, 48 h
[1] = tested on: SR leukemia
[2] = tested on: SK-MEL-28 melanoma
[3] = tested on: MDA-MB-231 breast
[4] = tested on: SK-OV-3 ovarian
[5] = tested on: HCT-116 colon
[6] = tested on: T-47D breast
[7] = tested on: NCI-H226 lung
[8] = tested on: MDA-MB-435
[9] = tested on: BT-549 breast
[10] = tested on: UACC-62 melanoma
[11] = tested on: M14 melanoma
[12] = tested on: SNB-75 CNS
[13] = tested on: CCRF-CEM leukemia
[14] = tested on: SN12C renal
[15] = tested on: HOP-92 NSCLC
[16] = tested on: UO-31 renal
[17] = tested on: MOLT-4 leukemia
[18] = tested on: EKVX NSCLC
[19] = tested on: NCI-H23 lung
[20] = tested on: HCC-2998 colon
[21] = tested on: SF-539 CNS
[22] = tested on: NCI-H460 lung
[23] = tested on: PC-3 prostate
[24] = tested on: HCT-15 colon
[25] = tested on: K-562 leukemia
[26] = tested on: SW-620 colon
[27] = tested on: RPMI-8226 leukemia
[28] = tested on: IGROV1 ovarian
[29] = tested on: OVCAR-4 ovarian
[30] = tested on: SNB-19 CNS
[31] = tested on: SF-268 CNS
[32] = tested on: OVCAR-5 ovarian
[33] = tested on: HS 578T breast
[34] = tested on: A498 renal
[35] = tested on: U251 CNS
[36] = tested on: 786-0 renal
[37] = tested on: NCI/ADR-RES ovarian
[38] = tested on: TK-10 renal
[39] = tested on: SF-295 CNS
[40] = tested on: SK-MEL-2 melanoma
[41] = tested on: MCF7 breast
[42] = tested on: CAKI-1 renal
[43] = tested on: COLO 205 colon
[44] = tested on: HT29 colon
[45] = tested on: UACC-257 melanoma
[46] = tested on: SK-MEL-5 melanoma
[47] = tested on: HL-60(TB) leukemia
[48] = tested on: DU-145 prostate
[49] = tested on: ACHN renal
[50] = tested on: A549 NSCLC
[51] = tested on: NCI-H522 lung
[52] = tested on: KM12 colon
[53] = tested on: LOX IMVI melanoma
[54] = tested on: MALME-3M melanoma
[55] = tested on: OVCAR-3 ovarian
[56] = tested on: HOP-62 NSCLC
[57] = tested on: RXF 393 renal

## c1ccc(CC(NCCNC(Cc2ccccc2)c2ccccc2)c2ccccc2)cc1 (stereo not drawn)
[1]
  GI50: 0.243 µM
  TGI: 0.587 µM
[2]
  GI50: 1.22 µM
  TGI: 2.8 µM
[3]
  GI50: 0.331 µM
  TGI: 1.24 µM
[4]
  GI50: 1.3 µM
  TGI: 3.93 µM
[5]
  GI50: 0.2 µM
  TGI: 0.486 µM
[6]
  GI50: 0.243 µM
  TGI: 0.693 µM
[7]
  GI50: 1.12 µM
  TGI: 2.79 µM
[8]
  GI50: 0.817 µM
  TGI: 2.22 µM
[9]
  GI50: 1.26 µM
  TGI: 3 µM
[10]
  GI50: 0.491 µM
  TGI: 1.86 µM
[11]
  GI50: 0.302 µM
  TGI: 1.01 µM
[12]
  GI50: 1.43 µM
  TGI: 4.56 µM
[13]
  GI50: 0.49 µM
  TGI: 2.57 µM
[14]
  GI50: 0.517 µM
  TGI: 1.96 µM
[15]
  GI50: 0.369 µM
  TGI: 1.48 µM
[16]
  GI50: 0.415 µM
  TGI: 1.96 µM
[17]
  GI50: 0.306 µM
  TGI: 0.959 µM
[18]
  GI50: 0.482 µM
  TGI: 3.17 µM
[19]
  GI50: 0.589 µM
  TGI: 2.55 µM
[20]
  GI50: 0.393 µM
  TGI: 1.55 µM
[21]
  GI50: 0.451 µM
  TGI: 1.64 µM
[22]
  GI50: 0.294 µM
  TGI: 0.719 µM
[23]
  GI50: 0.409 µM
  TGI: 1.78 µM
[24]
  GI50: 0.463 µM
  TGI: 1.64 µM
[25]
  GI50: 0.307 µM
  TGI: 0.89 µM
[26]
  GI50: 0.401 µM
  TGI: 1.38 µM
[27]
  GI50: 0.243 µM
  TGI: 0.524 µM
[28]
  GI50: 0.605 µM
  TGI: 2.84 µM
[29]
  GI50: 0.415 µM
  TGI: 2.02 µM
[30]
  GI50: 0.964 µM
  TGI: 4.15 µM
[31]
  GI50: 0.801 µM
  TGI: 7.12 µM
[32]
  GI50: 1.24 µM
  TGI: 3.57 µM
[33]
  GI50: 1.64 µM
  TGI: 4.12 µM
[34]
  GI50: 1.25 µM
  TGI: 2.66 µM
[35]
  GI50: 0.406 µM
  TGI: 1.43 µM
[36]
  GI50: 0.383 µM
  TGI: 1.59 µM
[37]
  GI50: 0.643 µM
  TGI: 2.2 µM
[38]
  GI50: 1.46 µM
  TGI: 4.21 µM
[39]
  GI50: 0.372 µM
  TGI: 1.56 µM
[40]
  GI50: 1.16 µM
  TGI: 2.57 µM
[41]
  GI50: 0.311 µM
  TGI: 1.14 µM
[42]
  GI50: 0.456 µM
  TGI: 2.44 µM
[43]
  GI50: 0.191 µM
  TGI: 0.382 µM
[44]
  GI50: 0.227 µM
  TGI: 0.567 µM
[45]
  GI50: 1.02 µM
  TGI: 2.4 µM
[46]
  GI50: 0.271 µM
  TGI: 0.779 µM
[47]
  GI50: 0.322 µM
  TGI: 0.89 µM
[48]
  GI50: 0.395 µM
  TGI: 1.87 µM
[49]
  GI50: 0.585 µM
  TGI: 2.49 µM
[50]
  GI50: 1.1 µM
  TGI: 4.69 µM
[51]
  GI50: 0.32 µM
  TGI: 1.06 µM
[52]
  GI50: 0.384 µM
  TGI: 1.52 µM
[53]
  GI50: 0.185 µM
  TGI: 0.375 µM
[54]
  GI50: 0.339 µM
  TGI: 1.44 µM
[55]
  GI50: 0.398 µM
  TGI: 1.46 µM
[56]
  GI50: 1.17 µM
  TGI: 2.86 µM
[57]
  GI50: 0.26 µM
  TGI: 0.705 µM

## Cc1n(Cc2ccc3ccccc3c2)c(Cl)c(Cl)[n+]1Cc1ccc2ccccc2c1
[1]
  GI50: 1.87 µM
  TGI: 4.98 µM
[2]
  GI50: 1.68 µM
  TGI: 3.18 µM
[3]
  GI50: 1.59 µM
  TGI: 3.09 µM
[4]
  GI50: 2.52 µM
  TGI: 9.62 µM
[5]
  GI50: 1.62 µM
  TGI: 3.28 µM
[6]
  GI50: 2.05 µM
  TGI: 6.44 µM
[7]
  GI50: 2.48 µM
  TGI: 6.97 µM
[8]
  GI50: 1.68 µM
  TGI: 3.19 µM
[9]
  GI50: 1.65 µM
  TGI: 3.17 µM
[10]
  GI50: 1.38 µM
  TGI: 2.74 µM
[11]
  GI50: 1.79 µM
  TGI: 3.99 µM
[12]
  GI50: 1.16 µM
  TGI: 2.66 µM
[13]
  GI50: 1.96 µM
  TGI: 6.05 µM
[14]
  GI50: 1.62 µM
  TGI: 3.03 µM
[15]
  GI50: 1.17 µM
  TGI: 2.94 µM
[16]
  GI50: 1.71 µM
  TGI: 8.24 µM
[17]
  GI50: 2.31 µM
  TGI: 5.58 µM
[18]
  GI50: 2.4 µM
  TGI: 8.01 µM
[19]
  GI50: 1.66 µM
  TGI: 3.86 µM
[20]
  GI50: 1.66 µM
  TGI: 3.14 µM
[21]
  GI50: 1.62 µM
  TGI: 3.08 µM
[22]
  GI50: 1.69 µM
  TGI: 3.2 µM
[23]
  GI50: 1.83 µM
  TGI: 4.13 µM
[24]
  GI50: 2.29 µM
  TGI: 6.52 µM
[25]
  GI50: 1.9 µM
  TGI: 7.3 µM
[26]
  GI50: 1.48 µM
  TGI: 3.06 µM
[27]
  GI50: 1.05 µM
  TGI: 3.12 µM
[28]
  GI50: 1.39 µM
  TGI: 2.81 µM
[29]
  GI50: 1.39 µM
  TGI: 2.76 µM
[30]
  GI50: 1.57 µM
  TGI: 2.96 µM
[31]
  GI50: 1.67 µM
  TGI: 3.29 µM
[32]
  GI50: 1.65 µM
  TGI: 3.89 µM
[33]
  GI50: 1.54 µM
  TGI: 3.79 µM
[34]
  GI50: 1.56 µM
  TGI: 4.57 µM
[35]
  GI50: 1.79 µM
  TGI: 3.6 µM
[36]
  GI50: 1.71 µM
  TGI: 3.14 µM
[37]
  GI50: 12 µM
  TGI: 29.6 µM
[38]
  GI50: 1.79 µM
  TGI: 3.53 µM
[39]
  GI50: 2.62 µM
  TGI: 8.09 µM
[40]
  GI50: 2.07 µM
  TGI: 4.13 µM
[41]
  GI50: 1.61 µM
  TGI: 3.37 µM
[42]
  GI50: 1.85 µM
  TGI: 4.67 µM
[43]
  GI50: 1.65 µM
  TGI: 3.8 µM
[44]
  GI50: 1.76 µM
  TGI: 4.12 µM
[45]
  GI50: 1.81 µM
  TGI: 4.21 µM
[46]
  GI50: 1.69 µM
  TGI: 3.08 µM
[47]
  GI50: 1.11 µM
  TGI: 3.55 µM
[48]
  GI50: 2.22 µM
  TGI: 5.26 µM
[49]
  GI50: 2.59 µM
  TGI: 8.07 µM
[50]
  GI50: 5.07 µM
  TGI: 22 µM
[51]
  GI50: 1.52 µM
  TGI: 3.9 µM
[52]
  GI50: 1.71 µM
  TGI: 3.24 µM
[53]
  GI50: 1.6 µM
  TGI: 2.95 µM
[54]
  GI50: 1.54 µM
  TGI: 3.46 µM
[55]
  GI50: 1.44 µM
  TGI: 2.87 µM
[56]
  GI50: 1.79 µM
  TGI: 3.81 µM
[57]
  GI50: 1.66 µM
  TGI: 3.16 µM
